“And” between values parts separate entries of the source, which are not always exact repeats. Equal values may be shown once. Inconclusive results are not listed.
Tested on: MX-1 breast xenograft, intrarenal, nude mice, tumor weight
Experiment: NCI In Vivo Anticancer Drug Screen. Data for tumor model Human Mammary Carcinoma MX-1 Xenograft (intrarenal inoculation) in NU/NU BALB/C (nude) mice
Conditions: endpoint: mean tumor weight change, higher = larger tumour
In short: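 T/C readout: treated-group measurement over vehicle-control measurement, using tumor size or survival in tumor-bearing mice.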

[1] = dose: 150.0 mg/kg/injection, schedule: Q04DX003 (ip), vehicle: saline with Tween-80
[2] = dose: 2.0 mg/kg/injection, schedule: Q04DX003 (ip), vehicle: water
[3] = dose: 150.0 mg/kg/injection, schedule: Q04DX003 (ip), vehicle: DMSO
[4] = dose: 300.0 mg/kg/injection, schedule: Q04DX003 (ip), vehicle: DMSO
[5] = dose: 300.0 mg/kg/injection, schedule: Q04DX003 (ip), vehicle: saline with Tween-80

## COC1C(CO)OC(n2cnc3c(=S)nc(N)[nH]c32)C1O (stereo not drawn)
dose: 150.0 mg/kg/injection, schedule: Q04DX003 (sc), vehicle: Klucel (hydroxypropylcellulose) (HPC)
  T/C: 105 % of control
dose: 300.0 mg/kg/injection, schedule: Q04DX003 (sc), vehicle: Klucel (hydroxypropylcellulose) (HPC)
  T/C: 48 % of control

## N=C(N)c1ccc(N=NNc2ccc(C(=N)N)cc2)cc1
[1]
  T/C: 83 % of control

## CNC(=S)C#N
dose: 75.0 mg/kg/injection, schedule: Q04DX003 (ip), vehicle: saline + Tween-80 + alcohol
  T/C: 51 % of control

## CC(C)(O)/C=C/C(=O)[C@](C)(O)[C@H]1[C@H](O)C[C@@]2(C)[C@@H]3CC=C4[C@@H](C=C(O)C(=O)C4(C)C)[C@]3(C)C(=O)C[C@]12C
dose: 0.25 mg/kg/injection, schedule: Q04DX003 (ip), vehicle: water
  T/C: 155 % of control
dose: 0.5 mg/kg/injection, schedule: Q04DX003 (ip), vehicle: water
  T/C: 118 % of control
dose: 1.0 mg/kg/injection, schedule: Q04DX003 (ip), vehicle: water
  T/C: 122 % of control
[2]
  T/C: 86 % of control

## CSc1cc(=O)n2c3ccccc3c3ccnc1c32
dose: 80.0 mg/kg/injection, schedule: Q04DX003 (sc), vehicle: saline with Tween-80
  T/C: 89 % of control
dose: 160.0 mg/kg/injection, schedule: Q04DX003 (sc), vehicle: saline with Tween-80
  T/C: 26 % of control
dose: 320.0 mg/kg/injection, schedule: Q04DX003 (sc), vehicle: saline with Tween-80
  T/C: 40 % of control

## COc1cc2c(cc1OC)[C@@H]1C(=O)c3ccc4c(c3O[C@@H]1CO2)C[C@H](C(C)C)O4
dose: 37.5 mg/kg/injection, schedule: Q04DX003 (ip), vehicle: Klucel (hydroxypropylcellulose) (HPC)
  T/C: 78 % of control
dose: 75.0 mg/kg/injection, schedule: Q04DX003 (ip), vehicle: Klucel (hydroxypropylcellulose) (HPC)
  T/C: 55 % of control
dose: 150.0 mg/kg/injection, schedule: Q04DX003 (ip), vehicle: Klucel (hydroxypropylcellulose) (HPC)
  T/C: 57 % of control

## N=C(N)c1nn(C2OC(CO)C(O)C2O)c2nc[nH]c(=O)c12 (stereo not drawn)
dose: 12.5 mg/kg/injection, schedule: Q04DX003 (ip), vehicle: Klucel + Tween-80
  T/C: 92 % of control
dose: 25.0 mg/kg/injection, schedule: Q04DX003 (ip), vehicle: Klucel + Tween-80
  T/C: 42 % of control
dose: 25.0 mg/kg/injection, schedule: Q04DX003 (ip), vehicle: distilled water + Tween-80 + alcohol
  T/C: 95 % of control
dose: 50.0 mg/kg/injection, schedule: Q04DX003 (ip), vehicle: distilled water + Tween-80 + alcohol
  T/C: 83 % of control
dose: 75.0 mg/kg/injection, schedule: Q04DX003 (ip), vehicle: Klucel + Tween-80
  T/C: 36 % of control
dose: 100.0 mg/kg/injection, schedule: Q04DX003 (ip), vehicle: distilled water + Tween-80 + alcohol
  T/C: 4 % of control
dose: 125.0 mg/kg/injection, schedule: Q04DX003 (ip), vehicle: Klucel + Tween-80
  T/C: 9 % of control

## C=Cc1cc(OC)c2c(c1)c(=O)oc1c2cc(OC)c2c(O)ccc(C3OC(C)C(O)C(C)(O)C3O)c21 (stereo not drawn)
dose: 37.5 mg/kg/injection, schedule: Q04DX003 (ip), vehicle: DMSO
  T/C: 95 % of control
dose: 75.0 mg/kg/injection, schedule: Q04DX003 (ip), vehicle: DMSO
  T/C: 86 % of control
[3]
  T/C: 79 % of control
[4]
  T/C: 64 % of control

## CCCCCCCCCCCCCCCCCCOCC(CO)OC (stereo not drawn)
[1]
  T/C: 117 % of control
[5]
  T/C: 93 % of control
dose: 600.0 mg/kg/injection, schedule: Q04DX003 (ip), vehicle: saline with Tween-80
  T/C: 81 % of control
dose: 1200.0 mg/kg/injection, schedule: Q04DX003 (ip), vehicle: saline with Tween-80
  T/C: 46 % of control

## Oc1ccc(/C=N/Nc2nnc(N/N=C/c3ccc(O)cc3O)c3ccccc23)c(O)c1
dose: 25.0 mg/kg/injection, schedule: Q04DX003 (ip), vehicle: suspension in saline
  T/C: 50 % of control
dose: 50.0 mg/kg/injection, schedule: Q04DX003 (ip), vehicle: suspension in saline
  T/C: 102 % of control
dose: 100.0 mg/kg/injection, schedule: Q04DX003 (ip), vehicle: suspension in saline
  T/C: 115 % of control

## ClCCCN1CCCCC1CCl (stereo not drawn)
dose: 6.25 mg/kg/injection, schedule: Q04DX003 (sc), vehicle: saline
  T/C: 53 % of control
dose: 12.5 mg/kg/injection, schedule: Q04DX003 (sc), vehicle: saline
  T/C: 3 % of control
dose: 25.0 mg/kg/injection, schedule: Q04DX003 (sc), vehicle: saline
  T/C: -13 % of control

## CCOC(=O)NC1=C(N2CC2)C(=O)C(NC(=O)OCC)=C(N2CC2)C1=O
dose: 1.56 mg/kg/injection, schedule: Q01DX010 (sc), vehicle: saline
  T/C: 45 % of control
dose: 3.13 mg/kg/injection, schedule: Q01DX010 (sc), vehicle: saline
  T/C: 13 % of control
dose: 6.25 mg/kg/injection, schedule: Q01DX010 (sc), vehicle: saline
  T/C: -75 % of control

## C=C1C(O)C2OC3(CCC(/C=C/C(C)C4CC5(C)SC5C5(OC(CC(C)(O)C(=O)O)CCC5O)O4)O3)CCC2OC1C(O)CC(C)C1OC2(CCCCO2)CCC1C (stereo not drawn)
dose: 5.0 micrograms/kg/injection, schedule: Q04DX003 (ip), vehicle: saline + alcohol
  T/C: 92 % of control
dose: 10.0 micrograms/kg/injection, schedule: Q04DX003 (ip), vehicle: saline + alcohol
  T/C: 84 % of control
dose: 40.0 micrograms/kg/injection, schedule: Q04DX003 (ip), vehicle: saline + alcohol
  T/C: 56 % of control and 76 % of control

## NC(Cc1ccccc1)C(=O)OCN1C(=O)C2C3C=CC(C2C1=O)C1C2C(=O)N(COC(=O)C(N)Cc4ccccc4)C(=O)C2C31 (stereo not drawn)
dose: 21.6 mg/kg/injection, schedule: Q01DX009 (ip), vehicle: water
  T/C: 76 % of control
dose: 25.0 mg/kg/injection, schedule: Q04DX003 (ip), vehicle: other
  T/C: 94 % of control
dose: 30.9 mg/kg/injection, schedule: Q01DX009 (ip), vehicle: water
  T/C: 57 % of control
dose: 44.1 mg/kg/injection, schedule: Q01DX009 (ip), vehicle: water
  T/C: 111 % of control
dose: 50.0 mg/kg/injection, schedule: Q04DX003 (ip), vehicle: other
  T/C: 86 % of control
dose: 63.0 mg/kg/injection, schedule: Q01DX009 (ip), vehicle: water
  T/C: 52 % of control
dose: 90.0 mg/kg/injection, schedule: Q01DX009 (ip), vehicle: water
  T/C: 24 % of control
dose: 100.0 mg/kg/injection, schedule: Q04DX003 (ip), vehicle: other
  T/C: 65 % of control
dose: 200.0 mg/kg/injection, schedule: Q04DX003 (ip), vehicle: other
  T/C: 39 % of control

## CNC(=O)Sc1ccc(C)c(N(C)C)c1
[1]
  T/C: 92 % of control
[5]
  T/C: 44 % of control

## CN(C)N=Nc1ccc(C(=O)O)cc1
dose: 100.0 mg/kg/injection, schedule: Q04DX003 (ip), vehicle: saline
  T/C: 30 % of control
dose: 200.0 mg/kg/injection, schedule: Q04DX003 (ip), vehicle: saline
  T/C: 2 % of control
dose: 400.0 mg/kg/injection, schedule: Q04DX003 (ip), vehicle: saline
  T/C: -60 % of control

## Brc1c(NC2=NCCN2)ccc2nccnc12
dose: 50.0 mg/kg/injection, schedule: Q04DX003 (sc), vehicle: saline
  T/C: 69 % of control
dose: 100.0 mg/kg/injection, schedule: Q04DX003 (sc), vehicle: saline
  T/C: 57 % of control
dose: 200.0 mg/kg/injection, schedule: Q04DX003 (sc), vehicle: saline
  T/C: 41 % of control
dose: 400.0 mg/kg/injection, schedule: Q04DX003 (sc), vehicle: saline
  T/C: 23 % of control

## COc1cccc2c1C(=O)c1c(O)c3c(c(O)c1C2=O)C[C@@](O)(C(=O)CO)C[C@@H]3OC1CC(N)C(O)C(C)O1 (stereo partly drawn)
[2]
  T/C: 33 % of control
dose: 4.0 mg/kg/injection, schedule: Q04DX003 (ip), vehicle: water
  T/C: 7 % of control
dose: 8.0 mg/kg/injection, schedule: Q04DX003 (ip), vehicle: water
  T/C: -88 % of control

## Nc1nc2ncn(O)c2c(=O)[nH]1
dose: 25.0 mg/kg/injection, schedule: Q04DX003 (ip), vehicle: water
  T/C: 25 % of control and 41 % of control
dose: 50.0 mg/kg/injection, schedule: Q04DX003 (ip), vehicle: water
  T/C: 13 % of control

## NC(=S)N/N=C/c1ncccc1O
dose: 150.0 mg/kg/injection, schedule: Q04DX003 (ip), vehicle: suspension in saline
  T/C: 86 % of control
dose: 300.0 mg/kg/injection, schedule: Q04DX003 (ip), vehicle: suspension in saline
  T/C: 93 % of control

## CCCCNc1ccc2nnc(C)n2n1
[3]
  T/C: 94 % of control and 108 % of control
[4]
  T/C: 78 % of control and 88 % of control

## COc1cc2c(oc(=O)c3cc(C)cc(OC)c32)c2c(C3OC(C)C(O)C(C)(O)C3O)ccc(O)c12 (stereo not drawn)
dose: 12.5 mg/kg/injection, schedule: Q04DX003 (ip), vehicle: DMSO
  T/C: 97 % of control and 106 % of control
dose: 50.0 mg/kg/injection, schedule: Q04DX003 (ip), vehicle: DMSO
  T/C: 48 % of control and 63 % of control

## Cc1cc(=NO)cc(C)n1O
dose: 300.0 mg/kg/injection, schedule: Q04DX003 (sc), vehicle: distilled water + alcohol
  T/C: 116 % of control
dose: 1200.0 mg/kg/injection, schedule: Q04DX003 (sc), vehicle: distilled water + alcohol
  T/C: 90 % of control
dose: 2400.0 mg/kg/injection, schedule: Q04DX003 (sc), vehicle: distilled water + alcohol
  T/C: 89 % of control

Reference: PubChem BioAssay AID298 (DTP/NCI, 2004)
